Experimental data taken from PubChem BioAssay (NCI).
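Exposure lasted 48 hours, with cells grown in 96-well plates and compounds tested at five concentrations. At the GI50, growth is halved. The concentration for full growth arrest is given as TGI.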

Experiments:
Test in all cases: inhibition of tumour cell growth, NCI panel, 48 h
[1] = test system: RPMI-8226 leukemia
[2] = test system: MALME-3M melanoma
[3] = test system: SK-OV-3 ovarian
[4] = test system: NCI-H226 lung
[5] = test system: SN12C renal
[6] = test system: 786-0 renal
[7] = test system: IGROV1 ovarian
[8] = test system: NCI/ADR-RES ovarian
[9] = test system: SW-620 colon
[10] = test system: OVCAR-3 ovarian

## NC1CC=C(COC(=O)C(O)(c2ccccc2)C2CC2)CC1 (stereo unspecified)
[1]
  TGI: > 100 µM
[2]
  TGI: > 100 µM
[3]
  TGI: > 100 µM
[4]
  TGI: > 100 µM
[5]
  TGI: > 100 µM
[6]
  TGI: > 100 µM
[7]
  TGI: > 100 µM
[8]
  TGI: > 100 µM
[9]
  TGI: > 100 µM
[10]
  TGI: > 100 µM

## Cc1ccc(N=C2C(=Nc3ccc(C)cc3)N(c3ccc(C)cc3)C(=S)N2C(=O)c2ccccc2)cc1
[1]
  TGI: > 100 µM
[2]
  TGI: > 100 µM
[3]
  TGI: > 100 µM
[4]
  TGI: > 100 µM
[5]
  TGI: > 100 µM
[6]
  TGI: > 100 µM
[7]
  TGI: > 100 µM
[8]
  TGI: > 100 µM
[9]
  TGI: > 100 µM
[10]
  TGI: > 100 µM

## C=CCC(C(=O)Nc1cccc2[nH]cnc12)C(=O)OCC (stereo unspecified)
[1]
  TGI: > 100 µM
[3]
  TGI: > 100 µM
[4]
  TGI: > 100 µM
[5]
  TGI: > 100 µM
[6]
  TGI: > 100 µM
[7]
  TGI: > 100 µM
[8]
  TGI: > 100 µM
[9]
  TGI: > 100 µM
[10]
  TGI: > 100 µM

## O=c1[nH]c(=S)c2cc3c(=S)[nH]c(=O)n(CCO)c3nc2n1CCO
[1]
  TGI: > 100 µM
[2]
  TGI: > 100 µM
[3]
  TGI: > 100 µM
[4]
  TGI: > 100 µM
[5]
  TGI: > 100 µM
[6]
  TGI: > 100 µM
[7]
  TGI: > 100 µM
[8]
  TGI: > 100 µM
[9]
  TGI: > 100 µM
[10]
  TGI: > 100 µM

## COc1ccc(-c2nn(-c3ccc(NC(=O)Nc4ccc(Cl)c(C(F)(F)F)c4)cc3)cc2-c2ccncc2)cc1Cl
[1]
  GI50: 0.388 µM
  TGI: 1.92 µM
[2]
  GI50: 1.59 µM
  TGI: 5.09 µM
[4]
  GI50: 2.59 µM
  TGI: 8.78 µM
[5]
  GI50: 2.23 µM
  TGI: 8.69 µM
[7]
  GI50: 2.16 µM
  TGI: 63.1 µM
[8]
  GI50: 2.4 µM
  TGI: > 100 µM
[9]
  GI50: 1.93 µM
  TGI: 4.4 µM
[10]
  GI50: 1.67 µM
  TGI: 6.14 µM

## C[N+](C)(CCNC(=O)c1cccc2cc3ccccc3nc12)Cc1ccc([N+](=O)[O-])s1
[1]
  TGI: > 25 µM
[2]
  TGI: > 25 µM
[3]
  TGI: > 25 µM
[4]
  TGI: > 25 µM
[5]
  TGI: > 25 µM
[6]
  TGI: > 25 µM
[7]
  TGI: > 25 µM
[8]
  TGI: > 25 µM
[9]
  TGI: > 25 µM
[10]
  TGI: > 25 µM

## Cc1ccc(-n2cc([Si](C)(C)C)nn2)s1
[1]
  TGI: > 100 µM
[2]
  TGI: > 100 µM
[3]
  TGI: > 100 µM
[4]
  TGI: > 100 µM
[5]
  TGI: > 100 µM
[6]
  TGI: > 100 µM
[8]
  TGI: > 100 µM
[9]
  TGI: > 100 µM
[10]
  TGI: > 100 µM

## N#CC(C#N)=C1C(=O)NC(N)=C1C#N
[1]
  TGI: > 100 µM
[2]
  TGI: > 100 µM
[3]
  TGI: > 100 µM
[4]
  TGI: > 100 µM
[5]
  TGI: > 100 µM
[6]
  TGI: > 100 µM
[7]
  TGI: > 100 µM
[8]
  TGI: > 100 µM
[9]
  TGI: > 100 µM

## CCOc1ccc2c(c1)c(=O)c1c(NCCN(CC)CC)ccc3nnn2c31
[1]
  TGI: > 65.1 µM
[2]
  TGI: 33.8 µM
[3]
  TGI: > 100 µM
[4]
  TGI: > 100 µM
[5]
  TGI: > 100 µM
[6]
  TGI: > 49 µM
[7]
  TGI: 30.3 µM
[8]
  TGI: > 54.2 µM
[9]
  TGI: 31.5 µM
[10]
  TGI: > 100 µM

## C=C(c1ccccc1)c1ccccc1-c1cc(-c2ccccc2)cc(-c2ccccc2)n1
[1]
  TGI: > 100 µM
[2]
  TGI: > 100 µM
[4]
  TGI: > 100 µM
[5]
  TGI: > 100 µM
[6]
  TGI: > 100 µM
[7]
  TGI: > 100 µM
[8]
  TGI: > 100 µM
[9]
  TGI: > 100 µM
[10]
  TGI: > 100 µM

## Cc1cn(S(=O)(=O)c2ccccc2)c2c(OCc3ccccc3)cc(NS(C)(=O)=O)cc12
[1]
  TGI: > 63.7 µM
[2]
  TGI: 43.7 µM
[3]
  TGI: > 100 µM
[4]
  TGI: > 94.4 µM
[5]
  TGI: > 70.2 µM
[6]
  TGI: > 100 µM
[7]
  TGI: > 100 µM
[8]
  TGI: > 100 µM
[9]
  TGI: > 100 µM
[10]
  TGI: > 75.7 µM

## COc1ccc(C2=NN=C3C(c4ccccc4)=Nc4ccccc4N3C2)cc1
[1]
  TGI: > 100 µM
[2]
  TGI: 66.3 µM
[3]
  TGI: > 100 µM
[4]
  TGI: > 100 µM
[5]
  TGI: > 100 µM
[6]
  TGI: > 100 µM
[7]
  TGI: > 100 µM
[8]
  TGI: 90.1 µM
[9]
  TGI: > 100 µM
[10]
  TGI: 6.52 µM

## O=C(O)C(=O)/C=C(\O)c1ccc(Br)cc1
[1]
  TGI: > 100 µM
[2]
  TGI: > 100 µM
[3]
  TGI: > 100 µM
[4]
  TGI: > 100 µM
[5]
  TGI: > 100 µM
[6]
  TGI: > 100 µM
[7]
  TGI: > 100 µM
[8]
  TGI: > 100 µM
[9]
  TGI: > 100 µM
[10]
  TGI: > 100 µM

## OC(CC(O)(C(F)(F)F)C(F)(F)F)c1ccc(C(O)CC(O)(C(F)(F)F)C(F)(F)F)cc1 (stereo unspecified)
[1]
  TGI: 48.8 µM
[2]
  TGI: 27.6 µM
[3]
  TGI: 31.9 µM
[6]
  TGI: 34.9 µM
[7]
  TGI: 23.3 µM
[8]
  TGI: 29.6 µM
[9]
  TGI: 35.8 µM
[10]
  TGI: 18.2 µM

## CCC[C@@H]1C(=O)N=C(N)N1C(=O)OCc1ccccc1
[1]
  TGI: > 100 µM
[2]
  TGI: > 100 µM
[4]
  TGI: > 100 µM
[5]
  TGI: > 100 µM
[6]
  TGI: > 100 µM
[7]
  TGI: > 100 µM
[8]
  TGI: > 100 µM
[9]
  TGI: > 100 µM
[10]
  TGI: > 100 µM

## CN1CCN(C2=CC(=O)c3c(O)ccc(O)c3C2=O)CC1
[1]
  TGI: 6.25 µM
[2]
  TGI: 0.592 µM
[3]
  TGI: > 10 µM
[4]
  TGI: 2.96 µM
[5]
  TGI: 2.99 µM
[6]
  TGI: 3.91 µM
[7]
  TGI: 3.06 µM
[8]
  TGI: > 10 µM
[9]
  TGI: 1.89 µM
[10]
  TGI: 0.611 µM

## COC(=O)c1c(O)ccc2c1c1c(n2Cc2ccccc2)C(=O)c2ccccc2C1
[1]
  TGI: 32.6 µM
[2]
  TGI: > 100 µM
[3]
  TGI: > 100 µM
[4]
  TGI: > 100 µM
[5]
  TGI: 45.4 µM
[6]
  TGI: > 100 µM
[7]
  TGI: > 100 µM
[8]
  TGI: 89.9 µM
[9]
  TGI: > 100 µM
[10]
  TGI: > 100 µM

## CCOC(=O)/C=C(\C(=O)OCC)n1ccc(=O)[nH]c1=O
[1]
  TGI: 34.4 µM
[2]
  TGI: 24.2 µM
[3]
  TGI: > 76.1 µM
[4]
  TGI: > 39.1 µM
[5]
  TGI: 26.4 µM
[6]
  TGI: 18.5 µM
[7]
  TGI: 30.1 µM
[8]
  TGI: > 93 µM
[9]
  TGI: 7.85 µM
[10]
  TGI: 26.1 µM

## COc1ccc(N2NC(c3ccccc3)(c3ccccc3)C(C)C2=O)cc1 (stereo unspecified)
[1]
  TGI: > 100 µM
[2]
  TGI: > 100 µM
[4]
  TGI: > 100 µM
[5]
  TGI: > 100 µM
[7]
  TGI: > 100 µM
[8]
  TGI: > 100 µM
[9]
  TGI: > 100 µM
[10]
  TGI: > 100 µM

## CCCCCCCCCCCCCC(=O)N(CCCCCCCCC)CC(O)C(O)C(OC1OC(CO)C(O)C(O)C1O)C(O)CO (stereo unspecified)
[1]
  TGI: 52.1 µM
[2]
  TGI: 35.7 µM
[3]
  TGI: 30.8 µM
[4]
  TGI: 34.3 µM
[5]
  TGI: 37.1 µM
[6]
  TGI: 32 µM
[7]
  TGI: 38.1 µM
[8]
  TGI: 37.7 µM
[9]
  TGI: 36.5 µM
[10]
  TGI: 53.1 µM

## CCOC(=O)[C@@H]1ON2OC(OC3CCCC3(c3ccccc3)c3ccccc3)C(OC(C)=O)[C@H]3OC(=O)[C@@H]1C32 (stereo partly specified)
[1]
  TGI: > 100 µM
[3]
  TGI: > 100 µM
[4]
  TGI: > 100 µM
[5]
  TGI: > 100 µM
[6]
  TGI: > 100 µM
[7]
  TGI: > 100 µM
[8]
  TGI: > 100 µM
[9]
  TGI: > 100 µM
[10]
  TGI: > 100 µM
